Data published in the supplement of paper PMC10307832.

Columns and labels:
Assay in all cases: relative viability (nuclei count vs DMSO), 5 days (fraction); higher = more cells survive
Dasatinib + Palbociclib = compound: Cc1nc(Nc2ncc(C(=O)Nc3c(C)cccc3Cl)s2)cc(N2CCN(CCO)CC2)n1 [Dasatinib] + CC(=O)c1c(C)c2cnc(Nc3ccc(N4CCNCC4)cn3)nc2n(C2CCCC2)c1=O [Palbociclib] (partner 0.5 µM)
In short: (§1)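 Medians of duplicate plates are given as relative viability. That measure is the nuclei count in treated wells divided by the count in vehicle wells. Counts were taken on 4× images of lung cancer cell lines in 1536-well plates, 5 days after pin-tool dosing the day after seeding with one drug alone or a fixed anchor-drug dose plus five library-drug doses (not always all listed) in √10 steps.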

ALW-II-49-7 + Luminespib = compound: Cc1ccc(C(=O)Nc2cccc(C(F)(F)F)c2)cc1Nc1cncc(C(N)=O)c1 [ALW-II-49-7] + CCNC(=O)c1noc(-c2cc(C(C)C)c(O)cc2O)c1-c1ccc(CN2CCOCC2)cc1 [Luminespib] (partner 0.01 µM)
In short: as §1

ALW-II-49-7 + Dasatinib = compound: Cc1ccc(C(=O)Nc2cccc(C(F)(F)F)c2)cc1Nc1cncc(C(N)=O)c1 [ALW-II-49-7] + Cc1nc(Nc2ncc(C(=O)Nc3c(C)cccc3Cl)s2)cc(N2CCN(CCO)CC2)n1 [Dasatinib] (partner 0.075 µM)
In short: as §1

XMD13-2 + OSI-027 = compound: C1CC1C(=O)NC2=NNC3=C2C=CC(=C3)C4=CC(=CC=C4)C(=O)NC5CC5 [XMD13-2] + COc1cccc2cc(-c3nc([C@H]4CC[C@H](C(=O)O)CC4)n4ncnc(N)c34)[nH]c12 [OSI-027] (partner 0.5 µM)
In short: as §1

Cell Line | relative viability (Dasatinib + Palbociclib; first compound 0.005 µM) | relative viability (Dasatinib + Palbociclib; first compound 0.01581 µM) | relative viability (Dasatinib + Palbociclib; first compound 0.05 µM) | relative viability (Dasatinib + Palbociclib; first compound 0.1581 µM) | relative viability (Dasatinib + Palbociclib; first compound 0.5 µM) | relative viability (ALW-II-49-7 + Luminespib; first compound 0.08 µM) | relative viability (ALW-II-49-7 + Luminespib; first compound 0.253 µM) | relative viability (ALW-II-49-7 + Luminespib; first compound 0.8 µM) | relative viability (ALW-II-49-7 + Luminespib; first compound 2.53 µM) | relative viability (ALW-II-49-7 + Luminespib; first compound 8 µM) | relative viability (ALW-II-49-7 + Dasatinib; first compound 0.08 µM) | relative viability (ALW-II-49-7 + Dasatinib; first compound 0.253 µM) | relative viability (ALW-II-49-7 + Dasatinib; first compound 0.8 µM) | relative viability (ALW-II-49-7 + Dasatinib; first compound 2.53 µM) | relative viability (ALW-II-49-7 + Dasatinib; first compound 8 µM) | relative viability (XMD13-2 + OSI-027; first compound 0.05 µM) | relative viability (XMD13-2 + OSI-027; first compound 0.1581 µM) | relative viability (XMD13-2 + OSI-027; first compound 0.5 µM) | relative viability (XMD13-2 + OSI-027; first compound 1.581 µM) | relative viability (XMD13-2 + OSI-027; first compound 5 µM)
NCI-H838 | 0.193 | 0.156 | 0.182 | 0.148 | 0.141 | 0.233 | 0.257 | 0.344 | 0.272 | 0.211 | 0.395 | 0.34 | 0.294 | 0.257 | 0.255 | 0.432 | 0.402 | 0.339 | 0.398 | 0.437
NCI-H520 | 0.172 | 0.156 | 0.131 | 0.1 | 0.119 | 0.219 | 0.216 | 0.232 | 0.206 | 0.237 | 0.218 | 0.192 | 0.202 | 0.172 | 0.177 | 0.306 | 0.278 | 0.232 | 0.294 | 0.225
NCI-H2347 | 0.393 | 0.438 | 0.415 | 0.329 | 0.224 | 0.241 | 0.483 | 0.363 | 0.324 | 0.512 | 0.264 | 0.302 | 0.301 | 0.34 | 0.356 | 0.394 | 0.455 | 0.426 | 0.444 | 0.413
NCI-H441 | 0.265 | 0.191 | 0.2 | 0.14 | 0.115 | 0.332 | 0.32 | 0.313 | 0.35 | 0.243 | 0.497 | 0.475 | 0.684 | 0.674 | 0.459 | 0.682 | 0.777 | 0.578 | 0.485 | 0.588
NCI-H2342 | 0.483 | 0.646 | 0.464 | 0.393 | 0.267 | 0.641 | 0.705 | 0.676 | 0.751 | 0.775 | 0.303 | 0.299 | 0.327 | 0.3 | 0.314 | 0.581 | 0.658 | 0.728 | 0.643 | 0.597
NCI-H1944 | 0.315 | 0.242 | 0.249 | 0.119 | 0.111 | 0.884 | 0.805 | 0.796 | 0.815 | 0.738 | 0.206 | 0.237 | 0.232 | 0.228 | 0.227 | 0.499 | 0.395 | 0.362 | 0.471 | 0.43
NCI-H2405 | 0.498 | 0.374 | 0.3 | 0.219 | 0.186 | 0.788 | 0.598 | 0.646 | 0.474 | 0.459 | 0.207 | 0.216 | 0.219 | 0.208 | 0.173 | 0.632 | 0.543 | 0.587 | 0.676 | 0.598
HCC-15 | 0.714 | 0.669 | 0.673 | 0.578 | 0.565 | 0.172 | 0.302 | 0.319 | 0.304 | 0.391 | 0.667 | 0.614 | 0.692 | 0.684 | 0.664 | 0.765 | 0.723 | 0.733 | 0.546 | 0.484
